Laboratory results from PMC8544286, “Screening and Identification of a Novel Anti-tuberculosis Compound That Targets Deoxyuridine 5′-Triphosphate Nucleotidohydrolase” (Frontiers in Microbiology, 2021).
Values after ≈ are worked out from the molar mass of the structure shown. Where two headings read alike, the source gives them in different places.

Key:
[1] = tested on: M. tuberculosis standard strain H37Rv; test: Microplate alamar blue assay (MABA), H37Rv; assay type: cell-based; settings: Mycobacterium tuberculosis, 168 h
[2] = tested on: sensitive strain STB-FJ05349; test: Microplate alamar blue assay (MABA), STB-FJ05349; assay type: cell-based; settings: Mycobacterium tuberculosis, STBFJ05349, 168 h
[3] = tested on: sensitive strain STB-FJ05060; test: Microplate alamar blue assay (MABA), STB-FJ05060; assay type: cell-based; settings: Mycobacterium tuberculosis, STBFJ05060, 168 h
[4] = target: M. tuberculosis dUTPase (Mt-dUTPase) (Mycobacterium tuberculosis, UniProt P9WNS5); assay type: biochemical
human dUTPase [5] = target: T1, human dUTPase (Homo sapiens, UniProt P33316); test: biochemical
human dUTPase [6] = target: T1, human dUTPase; test: Surface plasmon resonance (SPR), human dUTPase; assay type: binding; settings: human dUTPase on CM5 chip
in vitro = assay type: cell-based; settings: 24 h, CCK-8
Protocol: MRC-5, Vero E6, and Caco-2 cells were tested. […] Meanwhile, 2% DMSO was used as a negative control. After incubation for 24 h, 2-(2-methoxy-4-nitrophenyl)-3-(4-nitrophenyl)-5-(2,4-disulfophenyl)-2H-tetrazolium, monosodium salt (WST-8) was added. The experimental method referred to the kit instructions. All the experiments were repeated three times.

[7] = H37Rv, MABA, 7 days at 37°C, read-out: MIC
[8] = STB-FJ05349, MABA, 7 days at 37°C, read-out: MIC
[9] = STB-FJ05060, MABA, 7 days at 37°C, read-out: MIC

T1 sequence (P33316 other isoform, or with tags, fused parts or gaps): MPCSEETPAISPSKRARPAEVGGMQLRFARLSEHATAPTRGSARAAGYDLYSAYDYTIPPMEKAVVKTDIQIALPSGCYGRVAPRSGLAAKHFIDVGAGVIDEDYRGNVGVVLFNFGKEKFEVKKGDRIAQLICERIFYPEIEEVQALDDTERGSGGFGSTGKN
Sequence of M. tuberculosis dUTPase (Mt-dUTPase) (P9WNS5 whole entry): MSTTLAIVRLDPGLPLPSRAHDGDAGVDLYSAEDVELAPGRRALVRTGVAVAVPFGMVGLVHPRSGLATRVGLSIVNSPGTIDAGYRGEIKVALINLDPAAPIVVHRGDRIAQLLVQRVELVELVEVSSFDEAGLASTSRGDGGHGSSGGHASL

With CO[C@H]1/C=C/O[C@@]2(C)Oc3c(C)c(O)c4c(O)c(c(/C=N/N5CCN(C)CC5)c(O)c4c3C2=O)NC(=O)/C(C)=C\C=C\[C@H](C)[C@H](O)[C@@H](C)[C@@H](O)[C@@H](C)[C@H](OC(C)=O)[C@@H]1C [Rifampicin] the MIC ([1]; H37RV) was 0.25 µg/mL (≈ 0.304 µM), the MIC [2] was 0.5 µg/mL (≈ 0.608 µM) and the MIC [3] was 0.5 µg/mL (≈ 0.608 µM).

For O=c1ccn([C@H]2C[C@H](O)[C@@H](COC(c3ccccc3)(c3ccccc3)c3ccccc3)O2)c(=O)[nH]1 [Trt-dU], the IC50 ([4]; compound pre-incubated with enzyme 1 h at room temperature, luminescence readout) was 1.04 ± 0.08 µM and the “IC50 (Mt-dUTPase)” value ([4]; same IC50 printed in μg/ml) was 0.49 ± 0.02 µg/mL (≈ 1.04 µM).

Molecule C=CCn1c(/C=C/c2ccccc2)nc2ccccc21 [F0414] has an IC50 (human dUTPase [5]; luminescence readout) of 3.18 ± 0.96 µM, an IC50 (human dUTPase [5]; same IC50 printed in μg/mL) of 3.19 µM and an MIC [1, 7] of 4 µg/mL (≈ 15.4 µM). For the same molecule, the MIC [2, 8] was 4 µg/mL (≈ 15.4 µM), the MIC [3, 9] was 4 µg/mL (≈ 15.4 µM) and the “SPR binding to human dUTPase” value (human dUTPase [6]) was “almost no RU signals”. The CC50 (in vitro; African green monkey, Vero E6 cells) was > 200 µM, the CC50 (in vitro; African green monkey, Vero E6 cells, approximate conversion of >200 μM) was > 52 µg/mL and the CC50 (in vitro; human, Caco2 cells) was > 200 µM. The CC50 (in vitro; human, Caco2 cells, approximate conversion of >200 μM) was > 52 µg/mL, the CC50 (in vitro; human, MRC-5 cells) was > 200 µM and the CC50 (in vitro; human, MRC-5 cells, approximate conversion of >200 μM) was > 52 µg/mL.

For NNC(=O)c1ccncc1 [Isoniazid], the MIC [1, 7] was 0.25 µg/mL (≈ 1.82 µM), the MIC [2, 8] was 0.5 µg/mL (≈ 3.65 µM) and the MIC [3, 9] was 0.5 µg/mL (≈ 3.65 µM).
